The Kd is the equilibrium constant for the complex coming apart.

This note sets out measurements from paper PMC3856564 (Angewandte Chemie (International ed. in English), 2013).

One experiment has as its target PARP1 (Homo sapiens, UniProt P09874). Kind of experiment: surface plasmon resonance. It is filed as binding. On the technique in general: Surface plasmon resonance follows binding to a sensor surface in real time, without labels.
Experiment [1] concerns the target topoisomerase (DNA) II alpha (TOP2A) (Homo sapiens, UniProt P11388). Kind of experiment: surface plasmon resonance. It counts as binding.

PARP1, sequence (P09874 2-1014): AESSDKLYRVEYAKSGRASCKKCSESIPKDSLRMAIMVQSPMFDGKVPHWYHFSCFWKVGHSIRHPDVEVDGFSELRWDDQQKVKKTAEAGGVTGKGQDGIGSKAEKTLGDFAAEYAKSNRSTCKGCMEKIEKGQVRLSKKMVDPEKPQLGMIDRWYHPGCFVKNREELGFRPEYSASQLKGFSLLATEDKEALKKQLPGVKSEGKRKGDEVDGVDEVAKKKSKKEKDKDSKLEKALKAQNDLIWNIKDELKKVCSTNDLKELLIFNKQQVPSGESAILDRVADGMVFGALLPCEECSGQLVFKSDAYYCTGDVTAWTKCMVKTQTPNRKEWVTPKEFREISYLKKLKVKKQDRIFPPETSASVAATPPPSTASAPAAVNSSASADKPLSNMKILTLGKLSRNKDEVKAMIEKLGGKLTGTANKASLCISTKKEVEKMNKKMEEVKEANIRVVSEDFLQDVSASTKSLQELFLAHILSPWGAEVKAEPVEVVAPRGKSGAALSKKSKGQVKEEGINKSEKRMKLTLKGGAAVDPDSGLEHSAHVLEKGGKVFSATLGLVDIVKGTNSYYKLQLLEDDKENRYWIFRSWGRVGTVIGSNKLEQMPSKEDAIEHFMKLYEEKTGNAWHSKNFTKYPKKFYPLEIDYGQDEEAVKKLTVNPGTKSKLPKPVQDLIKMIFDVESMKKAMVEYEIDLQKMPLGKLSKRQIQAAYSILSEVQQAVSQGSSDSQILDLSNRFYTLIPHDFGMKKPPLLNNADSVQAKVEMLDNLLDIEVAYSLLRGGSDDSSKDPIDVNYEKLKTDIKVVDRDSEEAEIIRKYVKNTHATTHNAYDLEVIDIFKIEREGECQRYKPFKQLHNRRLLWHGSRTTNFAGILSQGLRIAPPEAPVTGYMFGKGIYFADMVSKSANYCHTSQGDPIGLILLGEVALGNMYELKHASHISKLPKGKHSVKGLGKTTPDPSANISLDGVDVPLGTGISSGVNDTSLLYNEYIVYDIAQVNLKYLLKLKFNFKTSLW
topoisomerase (DNA) II alpha (TOP2A), sequence (P11388 whole entry): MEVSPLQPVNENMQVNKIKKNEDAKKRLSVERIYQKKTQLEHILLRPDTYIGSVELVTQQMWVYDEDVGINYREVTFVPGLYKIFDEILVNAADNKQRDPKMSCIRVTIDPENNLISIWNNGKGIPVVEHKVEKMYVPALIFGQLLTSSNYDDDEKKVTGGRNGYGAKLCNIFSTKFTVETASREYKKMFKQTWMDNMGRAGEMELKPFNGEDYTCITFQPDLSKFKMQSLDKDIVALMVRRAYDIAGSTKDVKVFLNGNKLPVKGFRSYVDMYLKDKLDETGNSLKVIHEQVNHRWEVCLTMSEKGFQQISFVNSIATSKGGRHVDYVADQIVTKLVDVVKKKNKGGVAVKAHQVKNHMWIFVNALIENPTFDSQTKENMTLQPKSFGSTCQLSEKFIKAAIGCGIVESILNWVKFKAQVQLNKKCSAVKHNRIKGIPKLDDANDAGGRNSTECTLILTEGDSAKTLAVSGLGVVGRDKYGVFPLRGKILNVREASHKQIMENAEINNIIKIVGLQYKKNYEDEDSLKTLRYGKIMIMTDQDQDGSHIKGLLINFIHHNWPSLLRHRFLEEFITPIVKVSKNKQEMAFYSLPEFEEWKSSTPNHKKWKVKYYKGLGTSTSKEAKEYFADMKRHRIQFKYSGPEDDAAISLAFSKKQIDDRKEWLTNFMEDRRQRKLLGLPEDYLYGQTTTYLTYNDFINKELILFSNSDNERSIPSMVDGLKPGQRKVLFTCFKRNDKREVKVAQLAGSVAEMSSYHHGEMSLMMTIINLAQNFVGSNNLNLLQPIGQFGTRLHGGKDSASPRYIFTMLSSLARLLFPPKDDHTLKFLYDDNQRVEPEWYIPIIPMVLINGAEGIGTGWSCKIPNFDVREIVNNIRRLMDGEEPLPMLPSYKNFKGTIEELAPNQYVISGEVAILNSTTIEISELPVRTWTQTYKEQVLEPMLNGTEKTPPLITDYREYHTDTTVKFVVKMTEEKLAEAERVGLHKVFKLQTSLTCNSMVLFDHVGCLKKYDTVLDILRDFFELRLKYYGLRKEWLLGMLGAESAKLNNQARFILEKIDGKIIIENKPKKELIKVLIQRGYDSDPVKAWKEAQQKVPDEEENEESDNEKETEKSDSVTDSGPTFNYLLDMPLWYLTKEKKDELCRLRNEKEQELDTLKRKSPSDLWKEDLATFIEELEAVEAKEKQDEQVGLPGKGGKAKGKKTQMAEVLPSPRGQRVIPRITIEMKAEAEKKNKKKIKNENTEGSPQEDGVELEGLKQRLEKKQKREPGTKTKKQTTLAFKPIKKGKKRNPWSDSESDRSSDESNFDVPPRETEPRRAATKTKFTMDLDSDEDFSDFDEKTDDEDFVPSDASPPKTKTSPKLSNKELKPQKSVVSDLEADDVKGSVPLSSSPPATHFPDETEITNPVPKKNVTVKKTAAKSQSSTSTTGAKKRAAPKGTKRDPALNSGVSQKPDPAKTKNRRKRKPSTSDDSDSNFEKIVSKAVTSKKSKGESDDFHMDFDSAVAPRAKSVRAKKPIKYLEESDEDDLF

As to Olaparib-TCO, the results for the Kd (at PARP1; in experiment [1]) were 22 nM and roughly 3.7 nM, respectively.
